Series [1] in a line: Plasma concentration in Wistar rat plasma at 50 mg/kg, ip at 8 hrs. Format: ADME, organism-based. More on the design: dose 50 mg/kg, route intraperitoneal.
Series [2] is described as follows: Plasma concentration in Wistar rat plasma at 50 mg/kg, ip at 4 hrs. Format: ADME, organism-based. More on the design: dose 50 mg/kg, route intraperitoneal.
The nature of series [3]: AUC (0 to 8 hrs) in Wistar rat plasma at 50 mg/kg, ip. The class given is ADME, organism-based. More on the design: time < 8 hr, dose 50 mg/kg, route intraperitoneal.
Series [4] can be described thus: Cmax in Wistar rat at 5 mg/kg, iv by LC/MS/MS analysis. Format: ADME, organism-based. Also noted: dose 5 mg/kg, route intravenous. The note with it: in vivo.
Series [5] in a line: Plasma concentration in Wistar rat plasma at 50 mg/kg, ip at 2 hrs. The class given is ADME, organism-based. More on the design: dose 50 mg/kg, route intraperitoneal.
Series [6] has as its target T1, Succinate receptor 1 (Homo sapiens, UniProt Q9BXA5).
T1 sequence (Q9BXA5 whole entry): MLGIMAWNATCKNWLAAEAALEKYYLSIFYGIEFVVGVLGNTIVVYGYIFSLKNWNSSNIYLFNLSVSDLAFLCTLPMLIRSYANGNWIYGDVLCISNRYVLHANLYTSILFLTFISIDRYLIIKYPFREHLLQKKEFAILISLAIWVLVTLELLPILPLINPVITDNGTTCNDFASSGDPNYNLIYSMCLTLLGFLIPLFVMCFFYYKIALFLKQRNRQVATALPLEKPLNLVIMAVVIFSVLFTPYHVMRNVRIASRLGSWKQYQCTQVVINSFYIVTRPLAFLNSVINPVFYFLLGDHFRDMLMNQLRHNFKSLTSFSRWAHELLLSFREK
The experiment in a line: Antagonist activity at human GPR91 receptor expressed in CHO-K1 cells co-expressing Galpha and Gqi5 G-protein assessed as inhibition of succinate-induced increase in intracellular calcium level by FLIPR assay. The class given is functional, cell-based.

A short description of series [7]: Plasma clearance in Wistar rat at 5 mg/kg, iv. Format: ADME, organism-based. Also noted: dose 5 mg/kg, route intravenous.
Series [8] concerns Liver microsomes. Put plainly: Intrinsic clearance in rat liver microsomes preincubated for 5 mins before addition of NADPH measured after 30 mins by LC/MS/MS analysis. The class given is ADME, Microsome. The note with it: 0.5 h. (Microsomes from liver hold many membrane-bound enzymes, among them those of drug oxidation.)
Series [9] can be described thus: Volume of distribution at steady state in Wistar rat at 5 mg/kg, iv. Format: ADME, organism-based. More on the design: dose 5 mg/kg, route intravenous. Particulars: in vivo, read-out: Vdss.
The target in series [10] is T2, Succinate receptor 1 (Rattus norvegicus, UniProt Q6IYF9).
T2 sequence (Q6IYF9 whole entry): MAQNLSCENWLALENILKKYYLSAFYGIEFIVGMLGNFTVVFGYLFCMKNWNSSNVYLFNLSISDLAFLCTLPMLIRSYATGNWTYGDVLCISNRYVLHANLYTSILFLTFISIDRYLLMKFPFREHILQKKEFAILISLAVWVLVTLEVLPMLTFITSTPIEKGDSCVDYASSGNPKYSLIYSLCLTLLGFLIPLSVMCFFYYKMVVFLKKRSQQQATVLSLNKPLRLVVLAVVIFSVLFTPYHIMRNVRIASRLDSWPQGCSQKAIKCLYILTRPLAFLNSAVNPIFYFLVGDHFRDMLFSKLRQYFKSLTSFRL
Put plainly: Antagonist activity at rat GPR91 receptor expressed in CHO-K1 cells co-expressing Galpha and Gqi5 G-protein assessed as inhibition of succinate-induced increase in intracellular calcium level by FLIPR assay. The class given is functional, cell-based. A general note: Calcium assays in cells follow changes in intracellular calcium, usually with a dye or a luminescent sensor.

Series [11] is described as follows: Tmax in Wistar rat at 50 mg/kg, ip. Format: ADME, organism-based. More on the design: dose 50 mg/kg, route intraperitoneal. The note with it: in vivo.
Series [12] is described as follows: Terminal half life in Wistar rat at 5 mg/kg, iv. The class given is ADME, organism-based. More on the design: dose 5 mg/kg, route intravenous. The note with it: in vivo, read-out: beta t1/2 (converted).
Series [13] concerns the target 2-oxoglutarate receptor 1 (Homo sapiens, UniProt Q96P68). Put plainly: Antagonist activity at human GPR99 receptor expressed in CHO-K1 cells co-expressing Galpha and Gqi5 G-protein assessed as inhibition of succinate-induced increase in intracellular calcium level at by FLIPR assay. The class given is functional, cell-based.
Series [14] in a line: Cmax in Wistar rat at 50 mg/kg, ip by LC/MS/MS analysis. Format: ADME, organism-based. Also noted: dose 50 mg/kg, route intraperitoneal. The note with it: in vivo.
The test system of series [15] is Rattus norvegicus. The experiment in a line: Hypotensive activity in Wistar rat assessed as inhibition of succinate-induced increase in mean arterial pressure at 50 mg/kg, ip after 2 hrs post dose. The class given is functional. Particulars: Artery, route intraperitoneal.
A short description of series [16]: Drug concentration in Wistar rat kidney at 50 mg/kg, ip after 4 hrs. Format: ADME, organism-based. Also noted: dose 50 mg/kg, route intraperitoneal. Particulars: read-out: Drug uptake.
Series [17] in a line: Plasma protein binding in Wistar rat at 50 mg/kg, ip. Format: ADME, organism-based. Also noted: dose 50 mg/kg, route intraperitoneal. Particulars: read-out: PPB.
The test system of series [18] is Rattus norvegicus. The experiment in a line: Hypotensive activity in Wistar rat assessed as inhibition of succinate-induced increase in mean arterial pressure at 50 mg/kg, ip after 4 hrs post dose. Particulars: Artery, route intraperitoneal. Format: functional.
A short description of series [19]: Cmax in Wistar rat at 100 mg/kg, ip by LC/MS/MS analysis. The class given is ADME, organism-based. More on the design: dose 100 mg/kg, route intraperitoneal. The note with it: in vivo.
Series [20] in a line: Volume of distribution at steady state in Wistar rat at 3 mg/kg, iv. The class given is ADME, organism-based. More on the design: dose 3 mg/kg, route intravenous. Particulars: in vivo, read-out: Vdss.
A short description of series [21]: Plasma concentration in Wistar rat plasma at 100 mg/kg, ip at 8 hrs. The class given is ADME, organism-based. Also noted: dose 100 mg/kg, route intraperitoneal.
Series [22] has as its system Rattus norvegicus. Put plainly: Hypotensive activity in Wistar rat assessed as inhibition of succinate-induced increase in mean arterial pressure at 100 mg/kg, ip after 4 hrs post dose. Format: functional. The note with it: Artery, route intraperitoneal.
Series [23] in a line: Terminal half life in Wistar rat at 3 mg/kg, iv. Also noted: dose 3 mg/kg, route intravenous. The class given is ADME, organism-based. The note with it: in vivo, read-out: beta t1/2 (converted).
Series [24] can be described thus: Plasma concentration in Wistar rat plasma at 100 mg/kg, ip at 2 hrs. The class given is ADME, organism-based. Also noted: dose 100 mg/kg, route intraperitoneal.
Series [25] is described as follows: Plasma clearance in Wistar rat at 3 mg/kg, iv. The class given is ADME, organism-based. More on the design: dose 3 mg/kg, route intravenous.
Series [26] in a line: Plasma protein binding in Wistar rat at 100 mg/kg, ip. More on the design: dose 100 mg/kg, route intraperitoneal. Particulars: read-out: PPB. The class given is ADME, organism-based.
The test system of series [27] is Kidney. Put plainly: Drug concentration in Wistar rat kidney at 100 mg/kg, ip. Format: ADME, organism-based. Also noted: dose 100 mg/kg, route intraperitoneal. Particulars: in vivo, read-out: Drug uptake.
Series [28] relates to Rattus norvegicus. The experiment in a line: Hypotensive activity in Wistar rat assessed as inhibition of succinate-induced increase in mean arterial pressure at 100 mg/kg, ip after 2 hrs post dose. The class given is functional. Particulars: Artery, route intraperitoneal.
A short description of series [29]: Cmax in Wistar rat at 3 mg/kg, iv by LC/MS/MS analysis. The class given is ADME, organism-based. Also noted: dose 3 mg/kg, route intravenous. The note with it: in vivo.
Series [30] can be described thus: AUC (0 to 24 hrs) in Wistar rat plasma at 100 mg/kg, ip. The class given is ADME, organism-based. More on the design: time < 24 hr, dose 100 mg/kg, route intraperitoneal.
A short description of series [31]: Plasma concentration in Wistar rat plasma at 100 mg/kg, ip at 4 hrs. Also noted: dose 100 mg/kg, route intraperitoneal. Format: ADME, organism-based.
Series [32] can be described thus: Tmax in Wistar rat at 100 mg/kg, ip. The class given is ADME, organism-based. Also noted: dose 100 mg/kg, route intraperitoneal. The note with it: in vivo.

Each structure is given as a SMILES string.

2-oxoglutarate receptor 1, sequence (Q96P68 whole entry, looked up): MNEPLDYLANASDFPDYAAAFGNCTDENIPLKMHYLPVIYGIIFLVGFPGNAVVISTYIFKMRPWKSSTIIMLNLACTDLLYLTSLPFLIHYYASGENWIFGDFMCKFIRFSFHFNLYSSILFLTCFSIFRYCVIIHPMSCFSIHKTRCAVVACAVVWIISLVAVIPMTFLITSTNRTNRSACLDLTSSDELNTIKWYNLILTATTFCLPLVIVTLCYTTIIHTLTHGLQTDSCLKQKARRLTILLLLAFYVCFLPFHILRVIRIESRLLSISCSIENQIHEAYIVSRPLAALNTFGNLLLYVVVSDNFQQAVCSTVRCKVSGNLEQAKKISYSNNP

Consider `FC(F)(F)c1cc(-c2nnc(CCCCc3ccc4cccnc4n3)o2)ccc1Cl`, for which, in [1], the concentration at 8 h amounted to 15 µM. In series [2], the concentration at 4 h stood at 20 µM. Moreover, the area under the curve AUC(0-t) (as a rule, exposure summed from dosing to a finite time, without extrapolation to infinity) at 8 h in series [3] was 304 µM·h. The Cmax (in general, the peak of the concentration-time curve) in series [4] was determined as 92 µM; in [14] it was 21 µM. In addition, the concentration at 2 h in series [5] came out at 19 µM. The half-inhibitory concentration (IC50) – broadly, the concentration that inhibits the measured activity by half – was 160 nM in series [6], 435 nM in series [10] and > 30 µM in series [13]. Besides, in [7], the clearance (as a rule, the rate of elimination divided by the concentration) amounted to 4.8 mL/min/kg. The same molecule came in with an Intrinsic clearance in [8] of 0.3 nmol/min/mg. In series [9], the Vd worked out at 0.1 L/kg. The Tmax – broadly, the time at which the peak concentration occurs – in [11] came out at 2.7 h. The half-life in series [12] is 18 min.
The molecule `C[C@H](NC(=O)CCCc1ccc2cccnc2n1)c1ccc(-c2cccc(Cl)c2)cc1` came in with a Cmax in series [4] of 19 µM. The figures for the IC50 in [6], in [10] and in series [13] were 11 nM, 100 nM and 2 µM, respectively. The molecule also returned a clearance in series [7] of 14.8 mL/min/kg. Besides, the Intrinsic clearance in series [8] is 0.42 nmol/min/mg. For the same molecule, the Vd in series [9] came out at 0.7 L/kg. Besides, the half-life in series [12] is 48 min.
In [1], `Cc1cccc(-c2ccc(CNC(=O)CCCc3ccc4cccnc4n3)cc2)c1` gave a concentration at 8 h of 1.1 µM. For the same molecule, the figures for the inhibition in vivo at 50 mg/kg in series [15] and in series [18] were 71% and 67%, respectively. The values for the concentration at 4 h in series [16] and in [2] were 7 µM and 2 µM, respectively. Further, in series [3], the AUC(0-t) at 8 h came to 17.4 µM·h. In addition, the Cmax in series [4] was determined as 19 µM; in series [14], 3.7 µM. The molecule also had a concentration at 2 h in [5] of 1.8 µM. Moreover, the IC50 in series [6] is 30 nM; in series [10] it was 7 nM; in series [13] it was > 30 µM. The clearance in series [7] stood at 64.7 mL/min/kg. In [8], this molecule returned an Intrinsic clearance of 1.2 nmol/min/mg. For the same molecule, the fraction unbound in [17] turned out to be 0.01. Besides, in series [9], the Vd was determined as 0.5 L/kg. Also, the Tmax in series [11] was found to be 1.8 h. Further, the half-life in [12] was 6 min.
Turning to `C[C@H](NC(=O)Cc1ccc(-c2ccc3cccnc3n2)cc1)c1ccc(-c2ccc(F)c(C(F)(F)F)c2)cc1`, the figures for the Cmax in series [19] and in [29] were 400 nM and 9.8 µM, respectively. Also, the Vd in series [20] was 1 L/kg. In [21], this molecule gave a concentration at 8 h of 280 nM. Further, the inhibition in vivo (usually the relative decrease from the control value, in per cent) at 100 mg/kg in series [22] was determined as 76%; in [28], 59%. In addition, the half-life in series [23] is 54 min. Further, in [24], the concentration at 2 h is 240 nM. In series [25], this molecule registered a clearance of 36 mL/min/kg. Further, the fraction unbound in [26] amounted to 0.01. In addition, the concentration in series [27] was 8 µM. Also, the IC50 is 7 nM in series [6] and > 30 µM in series [13]. Further, the Intrinsic clearance in series [8] came to 0.2 nmol/min/mg. In [30], this molecule returned an area under the curve AUC(0-t) at 24 h of 4.3 µM·h. The concentration at 4 h in [31] turned out to be 330 nM. Also, the Tmax in series [32] came out at 4.9 h.
